Measurements taken from patent publication US10047098B2, “C5-C6-oxacyclic fused iminopyrimidinone compounds as bace inhibitors, compositions, and their use” (Merck Sharp & Dohme Corp., priority 2014, dated 2018).

Legend:
[1] = molecular target: Recombinant human soluble BACE1 catalytic domain (Homo sapiens (Human), UniProt P56817); experiment: BACE1 HTRF FRET Assay; type: biochemical; conditions: Ki calculated from IC50 using the Cheng-Prusoff equation; QSY7-APPswe-Eu substrate, pH 5.0; read-out: BACE-1 Ki
Chain of Recombinant human soluble BACE1 catalytic domain (P56817 75-416): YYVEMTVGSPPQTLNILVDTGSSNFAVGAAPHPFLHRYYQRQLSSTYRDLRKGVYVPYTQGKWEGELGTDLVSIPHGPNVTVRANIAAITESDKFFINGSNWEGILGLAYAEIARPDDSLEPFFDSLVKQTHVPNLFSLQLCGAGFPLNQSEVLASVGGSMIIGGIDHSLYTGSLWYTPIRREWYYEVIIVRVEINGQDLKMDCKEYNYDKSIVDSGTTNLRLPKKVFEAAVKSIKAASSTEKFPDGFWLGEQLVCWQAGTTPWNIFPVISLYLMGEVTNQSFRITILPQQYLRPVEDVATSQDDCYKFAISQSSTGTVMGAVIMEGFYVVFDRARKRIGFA
Method in brief: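 Purified BACE1 catalytic domain (3 nM as added) is preincubated with inhibitor for 30 min at 30 °C in 20 mM Na-acetate pH 5.0, 10% glycerol, 0.1% Brij-35, 7.5% DMSO. QSY7-APP^swe-Eu substrate (200 nM final) is then cleaved for 1.5 h at 30 °C and read as time-resolved 620 nm fluorescence. IC50s come from nonlinear regression, and Ki from Cheng-Prusoff using substrate Km 8 μM.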

[2] = molecular target: purified human autoBACE-2 (Homo sapiens (Human), UniProt Q9Y5Z0); experiment: BACE-2 Assay (BACE-HTRF assay); type: biochemical; conditions: Ki calculated from IC50 using the Cheng-Prusoff equation; QSY7-EISEVNLDAEFC-Eu-amide substrate, pH 5.0
Chain of purified human autoBACE-2 (Q9Y5Z0 63-473 limits assumed): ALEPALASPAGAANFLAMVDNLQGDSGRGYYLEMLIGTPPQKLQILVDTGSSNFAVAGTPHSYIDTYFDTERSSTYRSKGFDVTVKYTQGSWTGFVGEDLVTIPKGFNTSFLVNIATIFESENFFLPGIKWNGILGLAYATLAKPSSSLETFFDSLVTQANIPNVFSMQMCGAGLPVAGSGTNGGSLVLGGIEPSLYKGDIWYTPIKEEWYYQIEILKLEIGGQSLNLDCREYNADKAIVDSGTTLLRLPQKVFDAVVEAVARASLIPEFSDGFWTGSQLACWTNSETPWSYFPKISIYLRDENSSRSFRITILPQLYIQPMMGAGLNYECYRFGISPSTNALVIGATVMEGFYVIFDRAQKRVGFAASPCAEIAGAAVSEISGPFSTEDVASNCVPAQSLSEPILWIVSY
Method in brief: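 Endpoint proteolysis of a QSY7/europium FRET peptide by purified human autoBACE-2, 5% DMSO final, read by time-resolved fluorescence at 620 nm after 320 nm excitation.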

Row | Compound | Ki [1] [nM] | Ki [2] [nM]
1 | C[C@H]1C[C@H]2C(=O)N(C)C(=N)N[C@@]2(c2cc(Oc3ncccc3F)ncc2F)CO1 [Example 96] | 145 | 31.3
2 | (4aR,6S,8aS)-8a-(5-((4-chloropyridin-3-yl)oxy)-2-fluorophenyl)-2-imino-3,6-dimethylhexahydro-1H-pyrano[3,4-d]pyrimidin-4(4aH)-one [Example 75] | 58.2 | 23.3
